A value given as a limit tells only on which side of the number the result lay.

For orientation: EC50 means the concentration needed to bring the measured effect to its halfway point. A word on the inhibition: it is the change of the read-out against control, counted positive when it falls.

Common to all, as to assay type: cell-based
The subject of series [1] is CSES2-SO2/3 embryonic stem cells. The experiment in a line: CellTiter-Glo luminescent cell viability screen, CSES2-SO2/3. Particulars: Homo sapiens; for EC50: 24 h; for inhibition at 20 µM: pluripotent stem cells. As to the method:
5,000 CSES2 cells were plated in 50 μl per well of mTeSR1 medium into black 384-well clear-bottom plates (Falcon BD) pre-coated with Matrigel™ using WellMate cell dispenser (Matrix, Hudson, N.H.). 24 hours after plating, medium was replaced with 25 μl of fresh medium and 25 μl of 40 μM compound medium solutions in 1% DMSO from the intermediate compound dilution plates. The plates were incubated at 37° C., in a 5% CO2 atmosphere, for the entire duration of the screen, apart from the time required for liquid handling. Cell viability was determined 24 hours after compound treatment using CellTiter-Glo® luminescent cell viability assay kits. 50 μl of CellTiter-Glo® reagent was added to each well of the assay plates and fully mixed. After incubation at room temperature for 15 minutes, 25 μl of liquid was transferred from each well into a white opaque-bottom 384-well plate (PerkinElmer), and luminescence was measured using an EnVision® plate reader (PerkinElmer). 16 neutral control wells (0.5% DMSO) and 8 positive control wells (5 μM amsacrine hydrochloride were used to normalize the compound effect. All liquid transfer steps were handled with a Biomek® FXP Laboratory Automation Workstation (Beckman Coulter, Fullerton, Calif.) and Muitidrop Combi liquid dispenser (Thermo Fisher, Waltham, Mass.). An Assay Analyzer (Genedata, Basel, Switzerland) was used for data pattern correction and calculation. The Spotfire software (Spotfire, Somerville, Mass.) was used for data illustration.
The compounds identified as hits from the primary screen were retested at a concentration of 20 μM against three pluripotent stem cell lines (CSES2, H9 and CSES2-SO2/3) for confirmation screens.
(§1) 696 confirmed hits from the confirmation screen were tested for profiling in a panel of 13 different cell types, using the same screening protocol described above (except in the case of embryonic stem cell-derived neural stem cells (NSCs) and mesenchymal stem cells (MSCs), for which the protocol is described below). As discussed below, compounds were tested either in dose-dependent multiple concentration manner or in single concentration manner. CSES2 and CSES2-SO2/3 cell lines and the early endodermal progenitors derived from this cell line (CSES2-SO2/3-differentiated) were screened at 8 concentrations ranging from 50 μM to 23 nM with 1:3 serial dilution steps. BJ-iPS28 cell line and the BJ fibroblasts from which it was derived were screened at 6 concentrations ranging from 50 μM to 200 nM with 1:3 serial dilution steps. Cardiomyocytes were screened in one concentration of 20 μM. HeLa and NTERA-2 cell lines were screened in duplicates of 20 μM. Kelly and Huh-7 were screened in triplicates of 20 μM. Hepatocytes were screened in duplicates of 20 μM in the original 96-well plates in which the cells arrived (40,000 cells per well, in 160 μl medium, the volumes of all reagents involved were adjusted accordingly). MSCs and NSCs were screened in duplicates of 12.5 μM.
The raw intensity data for each well were background-corrected by subtraction of the median intensities across all positive control wells on the same plate, and used to calculate the inhibitory effect of each compound per cell line. A Genedata Assay Analyzer and Condoseo were used for data pattern correction, calculation and IC50 curve fitting. A Z′ factor was determined for each plate.

The subject of series [2] is CSES2-SO2/3 ES-derived endodermal progenitors. The series can be described thus: CellTiter-Glo counter-screen, endodermal progenitors. Particulars: Homo sapiens; for EC50: 24 hours, differentiated cells. As to the method:
CSES2-SO2/3 embryonic stem cells were differentiated to endodermal progenitors using an established protocol [Duan et al. Stem Cells 28:674-686 (2010)]. Undifferentiated cells were seeded at a density of 10,000 cells/cm^2 on MatrigelT™-coated plates, with mTeSR1 medium. The next day (day 1), medium was replaced to serum-free RPMI-1640, supplemented with 2 mM glutamine, 100 ng/ml Activin A 60 μg/ml of G418 geneticin sulfate and 0.3 μg/ml of puromycin. From day 3 to day 8, the same medium was also supplemented with 1×B27 supplement (Invitrogen) and 0.5 mM sodium butyrate. The cellular identity of the cells as endodermal progenitors was verified by quantifying the percentage of green SOX17+ cells, and the percentage of CXCR4+ cells, using a Guava® EasyCyte™ Plus flow cytometry system (Millipore). Further validation was obtained by fluorescence-staining of the cells with an antibody against the early endodermal surface marker CXCR4 (CXCR4-PE antibody, 1:25; BD Biosciences). The percentage of CXCR4+ cells was also quantified using the Guava® EasyCyte™ Plus flow cytometry system.
as §1, with “CSES2 and CSES2-SO2/3 cell lines and the early endodermal progenitors derived from this cell line (CSES2-SO2/3-differentiated) were screened at 8 concentrations ranging from 50 μM to 23 nM with 1:3 serial dilution steps.” left out
(§2) In order to identify highly-selective cytotoxic inhibitors of hPSCs, the 696 cytotoxic inhibitors of hPSCs identified as described in Example 1 were counter-screened as described in the Materials and Methods section against other cell types, representative of all germ layers and developmental stages. Importantly, many of these cell types were differentiated from human ES or iPS cells. The screened cell types included ES-derived neural stem cells (NSCs), ES-derived mesenchymal stem cells (MSCs), ES-derived endodermal progenitor cells, ES-derived hepatocytes, iPS-derived cardiomyocytes, iPS-derived fibroblasts of origin (BJ fibroblasts), and three cancer cell lines: neuroblastoma (Kelly), cervical cancer (HeLa) and hepatocarcinoma (Huh7). The cell types and their relationship to stem cells are depicted schematically in FIG. 14.
The identified compounds were screened at 8 concentrations using both the undifferentiated red cells and the differentiated green cells, and reliable EC50 values were thereby calculated for the genetically identical differentiated and undifferentiated cells.

A short description of series [3]: CellTiter-Glo counter-screen, hepatocytes. Particulars: human, human embryonic stem cell-derived hepatocytes (Cellartis), read-out: Inhibition (%) ES-derived hepatocytes. On the procedure: Human embryonic stem cell-derived hepatocytes were obtained from Cellartis (Goteborg, Sweden), and handled according to the manufacturer's instructions;
as §1, §2

Another series relates to BJ-fibroblasts. The series can be described thus: CellTiter-Glo counter-screen, BJ-fibroblasts. The settings on record: Homo sapiens; for EC50: 24 hours, differentiated cells. As to the method:
(§3) The cervical carcinoma cell line HeLa, teratocarcinoma cell line NTERA-2, and immortalized BJ fibroblast cell line, were cultured in DMEM supplemented with 10% FBS, penicillin (50 U/ml) and streptomycin (50 μg/ml).
as §1, §2
In addition, the identified compounds were screened at 6 concentrations using the BJ-fibroblasts from which the iPS line BJ-iPS28 had been derived, and reliable EC50 values were thereby calculated for both the iPS cells and for their somatic cells of origin.
In general terms: Cellular ATP, detected with luciferase, serves as a proxy for viable cell number.

For another series, the system named is HeLa cells. The series can be described thus: CellTiter-Glo counter-screen, HeLa. Particulars: Homo sapiens, cancer cells. As to the method:
as §3, §1, §2

With `Cc1ccc(NNC(=O)C(O)(c2ccccc2)c2cccs2)cc1` (stereo not shown) [PluriSIn #6, 2-hydroxy-2-(thiophen-2-yl)-2-phenylacetic acid 4-methyl-N′-phenylhydrazide], the EC50 in series [1] was 3.75 µM; in series [2], over 50 µM; with BJ-fibroblasts, over 50 µM. Further, the inhibition at 20 µM in series [1] is 93.2%; in series [2] it was -2.5%; in series [3], -5.2%; in the series with BJ-fibroblasts it was 15.9%; in the series with HeLa cells, 2.6%.

As to `Cc1oc2ccccc2c1/C=N/Nc1ccccc1` [PluriSIn #8], the results for the EC50 (in series [1]; in series [2]; in the series on BJ-fibroblasts) were 3.69 µM, over 50 µM and over 50 µM, respectively. The inhibition at 20 µM is 92.7% in series [1]; 0% in series [2]; 14.6% in series [3]; -10.3% with BJ-fibroblasts; 14.3% with HeLa cells.

Source of the values: patent US20180153830A1, “SELECTIVE INHIBITORS OF UNDIFFERENTIATED CELLS” (Yissum Research Development Company of the Hebrew …, priority 2012, published 2018).
